These results are taken from ChEMBL document CHEMBL3632538, “Novel 5-carboxy-8-HQ based histone demethylase JMJD2A inhibitors: introduction of an additional carboxyl group at the C-2 position of quinoline” (Eur J Med Chem, 2015).

SMILES strings stand for the structures. Values after ≈ are worked out from the molar mass of the structure shown. Active and inactive are the calls of the source. The calls are words filed in the database; no cut-off is given here.

For series [1], the target named is T1, Lysine-specific demethylase 4A (Homo sapiens, UniProt O75164).
T1 sequence (O75164 whole entry): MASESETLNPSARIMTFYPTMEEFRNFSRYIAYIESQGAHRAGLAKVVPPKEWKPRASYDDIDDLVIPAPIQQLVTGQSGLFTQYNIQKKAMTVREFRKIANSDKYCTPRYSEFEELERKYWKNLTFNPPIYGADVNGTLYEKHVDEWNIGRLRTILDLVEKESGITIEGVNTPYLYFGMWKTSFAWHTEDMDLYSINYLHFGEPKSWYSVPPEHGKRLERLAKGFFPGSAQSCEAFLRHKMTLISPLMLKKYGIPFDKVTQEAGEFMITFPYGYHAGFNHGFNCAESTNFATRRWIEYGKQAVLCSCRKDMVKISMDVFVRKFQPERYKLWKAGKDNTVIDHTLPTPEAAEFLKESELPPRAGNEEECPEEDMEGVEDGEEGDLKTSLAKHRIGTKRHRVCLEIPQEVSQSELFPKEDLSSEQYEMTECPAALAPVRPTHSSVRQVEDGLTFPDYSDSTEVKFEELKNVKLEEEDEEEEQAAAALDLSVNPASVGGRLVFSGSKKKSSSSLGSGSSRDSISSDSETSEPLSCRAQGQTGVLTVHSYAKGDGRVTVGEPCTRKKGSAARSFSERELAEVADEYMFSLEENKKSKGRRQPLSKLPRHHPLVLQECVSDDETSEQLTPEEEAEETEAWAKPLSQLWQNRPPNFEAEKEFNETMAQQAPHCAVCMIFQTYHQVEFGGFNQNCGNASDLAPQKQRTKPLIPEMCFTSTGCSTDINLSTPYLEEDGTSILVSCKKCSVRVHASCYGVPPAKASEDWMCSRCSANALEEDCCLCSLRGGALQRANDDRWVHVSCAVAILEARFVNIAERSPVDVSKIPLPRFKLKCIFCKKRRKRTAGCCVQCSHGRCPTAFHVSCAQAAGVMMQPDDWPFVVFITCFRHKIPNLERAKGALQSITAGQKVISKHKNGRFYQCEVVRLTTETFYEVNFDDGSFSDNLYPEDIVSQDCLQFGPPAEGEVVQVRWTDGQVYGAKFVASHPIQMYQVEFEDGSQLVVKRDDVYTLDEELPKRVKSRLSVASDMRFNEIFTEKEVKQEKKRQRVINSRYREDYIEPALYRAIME
Put plainly: Inhibition of recombinant human JMJD2A using biotinylated histone H3 as substrate by AlphaScreen assay.

Series [2] is described as follows: Partition co-efficient, log D of the compound at pH 7.4. Particulars: buffer. The series is classed as physicochemical.
A further series relates to HCT-116. Put plainly: Cytotoxicity against human HCT116 cells assessed as cell viability after 48 hrs by MTT assay. Particulars: HCT-116, 48 h. It counts as functional, cell-based.
Series [3] can be described thus: Permeability of the compound at 10 mM after 4 hrs by PAMPA. It counts as physicochemical. Particulars: read-out: permeability. A general note: PAMPA measures passive passage across an artificial lipid membrane.
A further series deals with A549. The experiment in a line: Cytotoxicity against human A549 cells assessed as cell viability after 48 hrs by MTT assay. The series is classed as functional, cell-based. To be noted: A549, 48 h. (Tetrazolium assays rely on reduction of a dye to a coloured formazan, in cell work by metabolically active cells.)
Series [4] deals with Egl nine homolog 1 (Homo sapiens) (UniProt Q9GZT9). Put plainly: Displacement of F-HIF1alpha from PHD2 (unknown origin) at 50 uM by fluorescence polarization assay relative to control.
Egl nine homolog 1 (Homo sapiens), sequence (Q9GZT9 2-426 limits assumed): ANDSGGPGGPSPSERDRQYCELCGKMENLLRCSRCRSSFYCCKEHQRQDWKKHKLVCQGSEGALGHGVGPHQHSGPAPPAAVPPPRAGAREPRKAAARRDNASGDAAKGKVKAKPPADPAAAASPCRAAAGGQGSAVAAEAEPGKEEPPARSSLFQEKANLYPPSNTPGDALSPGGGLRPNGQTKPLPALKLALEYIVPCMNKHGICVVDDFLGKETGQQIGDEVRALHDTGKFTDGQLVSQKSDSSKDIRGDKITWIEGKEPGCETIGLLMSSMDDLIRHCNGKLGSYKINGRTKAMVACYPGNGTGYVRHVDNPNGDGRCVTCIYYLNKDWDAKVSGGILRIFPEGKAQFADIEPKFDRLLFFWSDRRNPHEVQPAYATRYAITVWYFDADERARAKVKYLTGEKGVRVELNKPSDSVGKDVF
Series [5] in a line: Intrinsic aqueous solubility of the compound after 24 hrs by UV spectrophotometric analysis. It counts as physicochemical. Particulars: read-out: Intrinsic_solubility.
For another series, the system named is MCF7. The experiment in a line: Cytotoxicity against human MCF7 cells assessed as cell viability after 48 hrs by MTT assay. The series is classed as functional, cell-based. To be noted: MCF7, 48 h.
The target in series [6] is T2, Lysine-specific demethylase 4A (Homo sapiens) (UniProt O75164).
T2 sequence (whole entry): T1 sequence (O75164 whole entry)
The experiment in a line: Inhibition of JMJD2A in human HCT116 cells assessed as induction of H3K9me2 hypermethylation at 5 to 10 uM by Western blot analysis. Particulars: HCT-116. It counts as cell-based. Background: In western blotting, separated proteins are transferred to a membrane and probed.

In series [7] the target is T2, Lysine-specific demethylase 4A (Homo sapiens). Put plainly: Inhibition of JMJD2A in human HCT116 cells assessed as induction of H3K9me3 hypermethylation at 5 to 10 uM by Western blot analysis. It counts as cell-based. Particulars: HCT-116.

Broadly, the IC50 is the concentration at which inhibition is half-maximal. `O=C(NC1CCCCC1)c1ccc2c(C(=O)O)ccc(O)c2n1`: in series [1], the IC50 is over 100 µM.

By logD is commonly meant lipophilicity at a set pH, counting ionised and neutral species. A lower logD goes with lower lipophilicity. The term inhibition denotes how much of the control response was suppressed. As to `O=C(Nc1ccccn1)c1ccc2c(C(=O)O)ccc(O)c2n1`, the IC50 in series [1] is 2.8 µM; with HCT-116, 67 µM; in the series with A549 it was 72.2 µM; in the series on MCF7, 43.4 µM. In addition, in series [2], the logD was 1.2. Also, in series [3], the Papp at 4 h, 10000 µM amounted to 2.9 ×10⁻⁶ cm/s. The same molecule came in with an inhibition in series [4] of 24%. In addition, the solubility at 24 h in series [5] came to 1200 µM (≈ 371 µg/mL).

For the molecule `O=C(Nc1cccc2ccccc12)c1ccc2c(C(=O)O)ccc(O)c2n1`, the concentration for half-maximal inhibition (IC50) in [1] was over 100 µM.

Consider `COc1cccc(NC(=O)c2ccc3c(C(=O)O)ccc(O)c3n2)c1`, for which the IC50 in series [1] is over 100 µM.

Turning to `O=C(Nc1nc2ccccc2[nH]1)c1ccc2c(C(=O)O)ccc(O)c2n1`, the IC50 in series [1] amounted to 19 µM; in the series with HCT-116, 1.5 µM; in the series with A549, 21.7 µM; in the series on MCF7 it was 27.6 µM. Also, the inhibition entry in series [6] and in series [7] was “Active” in each case. The logD in series [2] came out at 2.7. The Papp at 4 h, 10000 µM in [3] turned out to be 6.7 ×10⁻⁶ cm/s. The molecule further displayed an inhibition in [4] of 25%. Also, the solubility at 24 h in series [5] stood at 1300 µM (≈ 453 µg/mL).

Turning to `O=C(O)c1ccc(O)c2ncccc12`, the logD in [2] is -1.9. Also, the values for the half-inhibitory concentration (IC50) in the series on HCT-116, in the series on A549 and in the series with MCF7 were 28.1 µM, 48.2 µM and 66.4 µM, respectively. Further, in series [3], the Papp at 4 h, 10000 µM was 2 ×10⁻⁶ cm/s. In series [4], this molecule registered an inhibition of 66.3%. Further, the solubility at 24 h in [5] amounted to 1200 µM (≈ 227 µg/mL).

With `O=C(Nc1ccccc1)c1ccc2c(C(=O)O)ccc(O)c2n1`, in [1], the IC50 is over 100 µM.

Regarding `CCN(CC)C(=O)c1ccc2c(C(=O)O)ccc(O)c2n1`, the 50% inhibitory concentration (IC50) was 1.8 µM in [1], 11.1 µM in the series with HCT-116, over 100 µM with A549 and over 100 µM with MCF7. The logD in [2] was 1.5. The Papp at 4 h, 10000 µM in series [3] was found to be 2.3 ×10⁻⁶ cm/s. For the same molecule, the inhibition in series [4] was 23.9%. The solubility at 24 h in series [5] amounted to 3600 µM (≈ 1040 µg/mL).

For the molecule `COc1ccc(NC(=O)c2ccc3c(C(=O)O)ccc(O)c3n2)cc1`, the IC50 in [1] is over 100 µM.

On to `O=C(NCCc1c[nH]c2ccccc12)c1ccc2c(C(=O)O)ccc(O)c2n1`, for which the IC50 in series [1] was 24 µM; with HCT-116, 68.3 µM; in the series on A549, over 100 µM; in the series with MCF7 it was over 100 µM. Moreover, the logD in series [2] turned out to be 2.9. Besides, in series [3], the Papp at 4 h, 10000 µM was determined as 3.6 ×10⁻⁶ cm/s. In series [4], the inhibition stood at 20.6%. Besides, the solubility at 24 h in [5] was determined as 900 µM (≈ 338 µg/mL).

For the molecule `O=C(NCCCN1CCOCC1)c1ccc2c(C(=O)O)ccc(O)c2n1`, the IC50 was 82 µM in [1], over 100 µM with HCT-116, over 100 µM with A549 and over 100 µM with MCF7.

As for `O=C(Nc1ccccc1F)c1ccc2c(C(=O)O)ccc(O)c2n1`, the IC50 in [1] was over 100 µM.

Turning to `CN1CCN(C(=O)c2ccc3c(C(=O)O)ccc(O)c3n2)CC1`, the IC50 in series [1] is 1.6 µM; with HCT-116, 94.9 µM; in the series with A549 it was over 100 µM; in the series with MCF7, 95 µM. Further, the logD in series [2] was found to be 0.3. The Papp at 4 h, 10000 µM in series [3] turned out to be 3.3 ×10⁻⁶ cm/s. The same molecule yielded an inhibition in series [4] of 18.7%. Further, the solubility at 24 h in series [5] came to 4900 µM (≈ 1550 µg/mL).

`Cc1ccc(NC(=O)c2ccc3c(C(=O)O)ccc(O)c3n2)nc1`: the IC50 in series [1] is 6.2 µM; in the series on HCT-116, 72.7 µM; with A549, 22.2 µM; with MCF7, over 100 µM. This molecule yielded an inhibition in [4] of 23.5%.

On to `CN(C)c1ccc(NC(=O)c2ccc3c(C(=O)O)ccc(O)c3n2)cc1`, for which, in series [1], the IC50 is over 100 µM.

With `CN(C)C(=O)c1ccc2c(C(=O)O)ccc(O)c2n1`, the IC50 in [1] is 3.7 µM; with HCT-116, over 100 µM; in the series on A549 it was over 100 µM; with MCF7 it was over 100 µM. The logD in series [2] is 0.4. The Papp at 4 h, 10000 µM in [3] was determined as 3 ×10⁻⁶ cm/s. This molecule also came in with an inhibition in series [4] of 17.6%. Moreover, the solubility at 24 h in series [5] turned out to be 3800 µM (≈ 989 µg/mL).

With `O=C(Nc1ccc(F)cc1)c1ccc2c(C(=O)O)ccc(O)c2n1`, the IC50 in series [1] was over 100 µM.

Take `Cc1cccc(NC(=O)c2ccc3c(C(=O)O)ccc(O)c3n2)c1`: in [1], the IC50 is over 100 µM.

For `Cc1ccc(NC(=O)c2ccc3c(C(=O)O)ccc(O)c3n2)cc1`, the IC50 in series [1] is over 100 µM.

On to `O=C(O)c1ccc(O)c2nc(C(=O)N3CCOCC3)ccc12`, for which the IC50 is 5.1 µM in series [1], over 100 µM in the series on HCT-116, over 100 µM with A549 and over 100 µM in the series on MCF7. This molecule displayed an inhibition in [4] of 9.1%.

In the case of `O=C(NCc1ccccc1)c1ccc2c(C(=O)O)ccc(O)c2n1`, the IC50 in series [1] is over 100 µM.

For the molecule `Cc1ccccc1NC(=O)c1ccc2c(C(=O)O)ccc(O)c2n1`, the IC50 is over 100 µM in series [1], 59.6 µM in the series on HCT-116, 94.6 µM in the series on A549 and over 100 µM with MCF7. For the same molecule, the pH-dependent lipophilicity (logD) in series [2] amounted to 3. The Papp at 4 h, 10000 µM in series [3] was 3.9 ×10⁻⁶ cm/s. The solubility at 24 h in [5] worked out at 700 µM (≈ 226 µg/mL).

`O=C(Nc1ccc(OC(F)(F)F)cc1)c1ccc2c(C(=O)O)ccc(O)c2n1`: in series [1], the half-maximal inhibitory concentration (IC50) was over 100 µM.
